Experimental data taken from patent US8492349B2, “Analgesia with minimal tolerance and dependence by a mu opioid receptor agonist that also binds filamin A” (Pain Therapeutics, Inc., priority 2007, dated 2013).
Like-named read-outs stand apart in the source and are kept apart here.

Columns and labels:
[1] = tested on: MOR; experiment: Stimulation of MOR screen; assay type: biochemical
From the text: In that Table, the log P value is the logarithm of a compound's partition coefficient between n-octanol and water [log(coctanol/cwater)], and is a well established measure of the compound's […]. “C Log P” shown in the Table is a calculated Log P value that is obtained using a program copyrighted (1988-2008) by Pomona College and BioByte, Inc. of Claremont, Calif.

[2] = tested on: other Go-coupled receptors; experiment: Stimulation of other Go-coupled receptors; assay type: biochemical; settings: 0.1 μM screen
[3] = target: FLNA (Homo sapiens, UniProt P21333); experiment: FLNA binding affinity screen
[4] = target: T1, purified human FLNA (Homo sapiens, UniProt P21333); experiment: [3H]NLX binding to immunopurified FLNA; settings: for attenuation of [3H]NLX binding to purified human FLNA: 10 μM peptide, 500 pM [3H]NLX
T1 construct: made in house
Protocol: (§1) To determine the NLX binding site on FLNA, various overlapping peptides encoding the c-terminal section of FLNA were used to compete for [^3H]NLX binding to FLNA using either A7 cell membranes or purified FLNA from A7 or SK-N-MC cells. Peptides were prepared by Sigma-Genosys (The Woodlands, Tex.). The reaction mixture consisted of 100 μg A7 membranes or 2 μg purified FLNA, 500 pM [^3H]NLX, and 10 μM of either FLNA2550-2560, FLNA2556-2565, FLNA2561-2570, FLNA2566-2575 or FLNA2576-2581 in 500 μl binding medium. The reaction was carried out at 37° C. for 30 minutes and terminated by rapid filtration through GF/B membranes under vacuum. The filters were washed twice with 5 ml ice-cold binding medium, and [^3H]NLX retained on the filters was measured by liquid, scintillation spectrometry.

[5] = tested on: pS133-CREB; experiment: Acute morphine-induced CREB S133 phosphorylation in organotypic striatal slice cultures; assay type: cell-based, rat; settings: for pS133CREB detection, treatment alone: without morphine; for pS133CREB level in striatal tissue: 100 μM
Protocol: CREB in the solubilized cytosol and nucleus was immunoprecipitated with an anti-CREB antibody (Santa Cruz) and the level of pS^133-CREB was then determined by Western blotting using a specific antibody directed against pS^133-CREB (Santa Cruz).

[6] = tested on: cAMP accumulation
Protocol: Tissues were homogenized by sonication and protein precipitated with 1M TCA. The supernatant obtained after centrifugation was neutralized using 50 mM Tris, pH 9.0. The level of cAMP in the brain lysate was measured by a cAMP assay kit (PerkinElmer Life Science, Boston) according to manufacturer's instructions.

[7] = target: T2, FLNA in A7 cell membranes (Homo sapiens, UniProt P21333); experiment: [3H]NLX binding to membranes from FLNA-expressing A7 cells (competition); settings: for displacement of [3H]NLX binding to A7 membranes: FIG. 3a; for attenuation of [3H]NLX binding to A7 cell membranes: 10 μM peptide, 500 pM [3H]NLX
T2 construct: expressed in transfected cells; host or cells: A7, a subclone of human melanoma M2, stably transfected with human FLNA cDNA; membranes
Protocol: To confirm FLNA as the high-affinity target of NLX, [^3H]NLX binding to the human melanoma cell line M2 and its subclone A7 was assessed. The M2 subclone lacks FLNA and MOR and its subclone A7 is stably transfected with human FLNA cDNA (obtained from Drs. Stossel and Ohta at Harvard Medical School).
Membranes prepared from A7 cells (50 μg) were incubated in binding medium consisting of 50 mM Tris HCl, pH 7.5; 100 mM NaCl; and protease and protein phosphatase inhibitors with 500 pM [^3H]NLX for 30 minutes at 37° C. Total incubation volume was 500 μl. Non-specific binding was defined by 1 μM NTX. […] Reactions were terminated by, rapid filtration through GF/B membranes under vacuum. The filters were washed twice with 5 ml ice-cold binding medium, and [^3H]NLX retained on the filters was measured by liquid scintillation spectrometry.
as §1
To determine the essential amino acid residue(s) within the NLX-interacting pentapeptide, four additional pentapeptides, each with one amino acid residue replaced by alanine, were used along with the correct FLNA2561-2565 pentapeptide to compete for [^3H]NLX binding to FLNA using 100 μg A7 cell membranes. Peptides were generated by Sigma-Genosys. The reaction mixture consisted of 500 pM [^3H]NLX, 100 μg A7 membranes, and 10 μM pentapeptide [AAKGL, (SEQ ID NO:13); VAKGL (SEQ ID NO:14); VAAGL (SEQ ID NO:12); VAKAL (SEQ ID NO:15) or VAKGA (SEQ ID NO:16)] in 500 μl binding medium. The reaction was conducted at 37° C. for 30 minutes and terminated by rapid filtration through GF/B membranes under reduced pressure. The filters were washed twice with 5 ml ice-cold binding medium, and [^3H]NLX retained on the filters was measured by liquid scintillation spectrometry.

[8] = tested on: MOR-Gs coupling; experiment: Acute morphine-induced MOR Go-to-Gs coupling switch in organotypic striatal slice cultures; assay type: cell-based, rat; settings: for effect on acute morphine-induced coupling switch by MOR: pre-treatment 10 μM peptide
Protocol: Tissues were harvested 5, 15 or 60 minutes after the drug exposure by centrifugation. For determination of MOR-G protein coupling, slices were homogenated to generate synaptic membranes and cytosolic fractions. Synaptic membranes (400 μg) were then solubilized with 0.5% digitonin/0.2% sodium cholate/0.5% NP-40 in 250 μl of immunoprecipitation buffer (25 mM HEPES, pH 7.5; 200 mM NaCl, 1 mM EDTA, 50 μg/ml leupeptin, 10 μg/ml aprotinin, 2 μg/ml soybean trypsin inhibitor, 0.04 mM PMSF and mixture of protein phosphatase inhibitors). Following centrifugation, striatal membrane lysates were immunoprecipitated with immobilized anti-Gαs/olf or -Gαo (Santa Cruz) conjugated with immobilized protein A-agarose beads (Pierce-Endogen). The level of MOR in anti-Gαs/olf or -Gαo immunoprecipitates was determined by Western blotting using specific anti-MOR antibodies.

[9] = cited from earlier work
[10] = tested on: MOR-Gs coupling; experiment: Chronic morphine-induced MOR Go-to-Gs coupling switch in organotypic striatal slice cultures; assay type: cell-based, rat; settings: for effect on NLX-mediated prevention of cellular indices of morphine tolerance (Go-to-Gs switch and cAMP): 10 μM peptide added to morphine plus 10 pM NLX
Protocol: For determination of MOR-G protein coupling, slices were homogenated to generate synaptic membranes. […] Following centrifugation, striatal membrane lysates were immunoprecipitated with immobilized anti-Gαs/olf or -Gαo conjugated with immobilized protein G-agarose beads. The level of MOR in anti-Gαs/olf or -Gαo immunoprecipitates was determined by Western blotting using specific anti-MOR antibodies.

[11] = co-treatment 100 pM with 100 μM morphine
[12] = pre-treatment 10 μM peptide, 100 μM morphine

T2 sequence (P21333 whole entry): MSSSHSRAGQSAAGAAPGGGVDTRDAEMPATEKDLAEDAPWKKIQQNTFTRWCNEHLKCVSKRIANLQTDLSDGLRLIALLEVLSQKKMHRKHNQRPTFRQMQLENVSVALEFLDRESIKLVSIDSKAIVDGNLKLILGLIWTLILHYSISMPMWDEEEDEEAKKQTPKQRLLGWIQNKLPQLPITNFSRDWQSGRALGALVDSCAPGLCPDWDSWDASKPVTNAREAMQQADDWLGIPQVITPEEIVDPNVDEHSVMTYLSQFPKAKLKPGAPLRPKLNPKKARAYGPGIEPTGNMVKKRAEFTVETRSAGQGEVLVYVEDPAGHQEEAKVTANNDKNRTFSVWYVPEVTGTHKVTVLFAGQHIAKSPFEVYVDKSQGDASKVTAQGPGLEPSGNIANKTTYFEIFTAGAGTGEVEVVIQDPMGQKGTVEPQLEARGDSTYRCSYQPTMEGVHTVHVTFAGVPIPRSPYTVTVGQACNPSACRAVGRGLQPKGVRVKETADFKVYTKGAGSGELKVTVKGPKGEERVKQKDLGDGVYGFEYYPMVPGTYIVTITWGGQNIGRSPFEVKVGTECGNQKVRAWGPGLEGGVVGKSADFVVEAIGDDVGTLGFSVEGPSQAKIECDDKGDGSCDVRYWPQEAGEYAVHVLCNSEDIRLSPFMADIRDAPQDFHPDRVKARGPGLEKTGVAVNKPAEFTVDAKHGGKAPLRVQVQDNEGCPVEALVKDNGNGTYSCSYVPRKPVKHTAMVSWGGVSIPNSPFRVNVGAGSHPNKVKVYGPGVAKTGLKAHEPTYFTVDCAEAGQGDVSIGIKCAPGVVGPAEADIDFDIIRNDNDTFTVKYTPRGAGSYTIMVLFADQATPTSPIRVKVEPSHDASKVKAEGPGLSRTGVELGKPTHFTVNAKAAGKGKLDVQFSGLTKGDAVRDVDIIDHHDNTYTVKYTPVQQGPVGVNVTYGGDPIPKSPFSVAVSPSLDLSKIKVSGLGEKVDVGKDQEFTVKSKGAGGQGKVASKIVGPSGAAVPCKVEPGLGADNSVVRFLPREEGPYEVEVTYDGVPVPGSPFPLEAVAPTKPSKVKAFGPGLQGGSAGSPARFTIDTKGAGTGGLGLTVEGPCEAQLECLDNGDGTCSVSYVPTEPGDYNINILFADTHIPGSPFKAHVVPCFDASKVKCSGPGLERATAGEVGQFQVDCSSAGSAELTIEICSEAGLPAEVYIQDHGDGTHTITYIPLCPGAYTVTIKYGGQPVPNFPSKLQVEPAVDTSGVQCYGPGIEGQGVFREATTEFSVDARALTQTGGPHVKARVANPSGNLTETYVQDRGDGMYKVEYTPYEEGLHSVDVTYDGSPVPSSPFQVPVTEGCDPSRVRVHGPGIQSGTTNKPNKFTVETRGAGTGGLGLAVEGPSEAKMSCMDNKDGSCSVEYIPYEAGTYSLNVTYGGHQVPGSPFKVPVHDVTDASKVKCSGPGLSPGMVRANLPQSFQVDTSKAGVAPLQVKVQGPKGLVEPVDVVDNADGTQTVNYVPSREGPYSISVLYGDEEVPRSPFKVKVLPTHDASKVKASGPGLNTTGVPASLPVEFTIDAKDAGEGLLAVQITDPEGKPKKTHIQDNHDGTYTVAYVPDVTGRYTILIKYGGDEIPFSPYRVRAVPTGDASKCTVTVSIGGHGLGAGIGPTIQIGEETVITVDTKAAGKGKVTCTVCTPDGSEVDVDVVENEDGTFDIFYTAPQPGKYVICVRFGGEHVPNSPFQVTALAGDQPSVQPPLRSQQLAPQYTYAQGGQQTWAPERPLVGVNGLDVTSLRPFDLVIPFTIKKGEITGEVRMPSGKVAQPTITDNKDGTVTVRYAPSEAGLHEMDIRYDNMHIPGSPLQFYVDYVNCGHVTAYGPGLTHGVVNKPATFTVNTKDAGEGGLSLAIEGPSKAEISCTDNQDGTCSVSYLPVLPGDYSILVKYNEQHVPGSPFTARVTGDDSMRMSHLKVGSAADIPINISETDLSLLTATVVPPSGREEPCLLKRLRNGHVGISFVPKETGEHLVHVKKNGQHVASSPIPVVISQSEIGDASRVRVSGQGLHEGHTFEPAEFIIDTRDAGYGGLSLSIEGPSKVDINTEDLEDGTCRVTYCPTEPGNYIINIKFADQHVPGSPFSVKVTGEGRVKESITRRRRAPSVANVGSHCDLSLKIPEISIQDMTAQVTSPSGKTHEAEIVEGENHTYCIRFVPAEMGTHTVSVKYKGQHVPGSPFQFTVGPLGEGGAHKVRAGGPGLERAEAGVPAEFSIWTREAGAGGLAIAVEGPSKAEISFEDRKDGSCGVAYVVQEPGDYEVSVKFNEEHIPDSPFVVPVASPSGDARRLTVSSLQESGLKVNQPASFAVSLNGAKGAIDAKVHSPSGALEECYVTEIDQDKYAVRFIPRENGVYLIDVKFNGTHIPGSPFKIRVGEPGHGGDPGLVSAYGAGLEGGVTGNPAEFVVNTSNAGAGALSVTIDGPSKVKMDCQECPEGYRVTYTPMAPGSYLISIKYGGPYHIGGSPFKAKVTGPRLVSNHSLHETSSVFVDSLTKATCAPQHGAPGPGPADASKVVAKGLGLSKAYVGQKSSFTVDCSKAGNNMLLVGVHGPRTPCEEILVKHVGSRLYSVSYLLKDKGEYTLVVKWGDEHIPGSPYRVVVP
T1 sequence (P21333 whole entry): as above
Sequence of FLNA (P21333 whole entry): as above

COC(OC)C12CCC(=O)C=C1CCC1C3CCC(OC(C)=O)C3(C)CCC12 (stereo not shown) [Compound 1]
Stimulation of MOR at (at 0.1 μM) [1]: 79% | Stimulation of other Go-coupled receptors [2]: 19%

C[C@@H]1CCC2[C@]3(C)COC(C)(C)OC3CC[C@@]2(C)C12CCC(CO)(CCO)O2 (stereo partly shown) [Compound 2]
Stimulation of MOR at (at 0.1 μM) [1]: 67% | Stimulation of other Go-coupled receptors [2]: 11%

COc1cc(CCC(O)CC2c3c(cc4c(c3OC)OCO4)CCN2C)ccc1O (stereo not shown) [Compound 3]
Stimulation of MOR at (at 0.1 μM) [1]: 78% | Stimulation of other Go-coupled receptors [2]: 16%

COc1ccc(S(=O)(=O)N2CCC3(CC2)OCCN3S(=O)(=O)c2ccc(OC)cc2)cc1 [Compound 5]
Kd ([3]; read-out: FLNA affinity): 8.65 pM | Stimulation of MOR at (at 0.1 μM) [1]: 91% | Stimulation of other Go-coupled receptors [2]: 11%

COc1ccccc1CC(=O)CC1c2c(cc3c(c2OC)OCO3)CC[N+]1(C)C (stereo not shown) [Compound 6]
Stimulation of MOR at (at 0.1 μM) [1]: 91% | Stimulation of other Go-coupled receptors [2]: 23%

COc1ccc(C(=O)CC2c3c(cc4c(c3OC)OCO4)CC[N+]2(C)C)c(OC)c1 (stereo not shown) [Compound 7]
Kd ([3]; read-out: FLNA affinity): 2.86 pM | Stimulation of MOR at (at 0.1 μM) [1]: 64% | Stimulation of other Go-coupled receptors [2]: 21%

C[C@@H](NC(=O)[C@@H](N)Cc1ccc(O)cc1)C(=O)NCC(=O)N(C)[C@@H](Cc1ccccc1)C(=O)NCCO [DAMGO]
Stimulation of MOR at (at 0.1 μM) [1]: 92% | Stimulation of other Go-coupled receptors [2]: 6%

C=CCN1CC[C@]23c4c5ccc(O)c4O[C@H]2C(=O)CC[C@@]3(O)[C@H]1C5 [Naloxone, naloxone]
Kd ([4]; read-out: binding affinity for immunopurified FLNA): ~43 pM | effect on acute morphine-induced pS133CREB signal [5, 11]: virtually abolished | pS133CREB detection, treatment alone [5]: did not result in pS^133CREB detection | effect on chronic morphine-induced attenuation of the DAMGO-induced reduction in cAMP production ([6]; 10 pM with 100 μM morphine): blocked

O=C1CC[C@@]2(O)[C@H]3Cc4ccc(O)c5c4[C@@]2(CCN3CC2CC2)[C@H]1O5 [Naltrexone, naltrexone]
Kd [3]: 3.9 pM | displacement of [3H]NLX binding to A7 membranes [7]: robustly displaced | IC50 ([7]; competition curve, 16 concentrations 0.2 pM to 1 μM, FIG. 4, read-out: IC50 for inhibition of [3H]NLX binding to membranes from FLNA-expressing A7 cells): 43 pM | effect on acute morphine-induced G protein coupling switch by MOR [8, 11]: prevented | effect on MOR coupling alone ([8]; without morphine): had no effect | effect on acute morphine-induced pS133CREB signal [5, 11]: virtually abolished | pS133CREB detection, treatment alone [5]: did not result in pS^133CREB detection | effect on acute rewarding effects of oxycodone ([9]; 3 ng/kg): without effect | effect on acute rewarding effects of oxycodone ([9]; 0.03, 0.3 and 30 ng/kg): blocked

CN1CC[C@]23c4c5ccc(O)c4O[C@H]2[C@@H](O)C=C[C@H]3[C@H]1C5 [morphine]
displacement of [3H]NLX binding to A7 membranes [7]: not | Go-to-Gs coupling switch by MOR after chronic treatment ([10]; 100 μM, 1 hour twice daily for 7 days): induced a robust Go-to-Gs coupling switch | pS133CREB level in striatal tissue ([5]; after 5 and 15 minutes of exposure): robust level | pS133CREB level in striatal tissue ([5]; after 1 hour of exposure): only a residual level | effect on DAMGO-mediated reduction in cAMP accumulation ([6]; chronic 100 μM treatment): attenuated

FLNA2550-2560: overlapping peptide encoding the c-terminal section of FLNA (PGPGPADASKV; UniProt P21333 2550-2560, looked up, fragment)
effect on NLX-mediated prevention of cellular indices of morphine tolerance (Go-to-Gs switch and cAMP) [10]: not

FLNA2556-2565: overlapping peptide encoding the c-terminal section of FLNA (DASKVVAKGL; UniProt P21333 2556-2565, looked up, fragment)
attenuation of [3H]NLX binding to A7 cell membranes [7]: markedly attenuated | attenuation of [3H]NLX binding to purified human FLNA [4]: markedly attenuated

FLNA2561-2570: overlapping peptide encoding the c-terminal section of FLNA (VAKGLGLSKA; UniProt P21333 2561-2570, looked up, fragment)
attenuation of [3H]NLX binding to A7 cell membranes [7]: markedly attenuated | attenuation of [3H]NLX binding to purified human FLNA [4]: markedly attenuated | effect on NLX-mediated prevention of cellular indices of morphine tolerance (Go-to-Gs switch and cAMP) [10]: abolished

FLNA2566-2575: overlapping peptide encoding the c-terminal section of FLNA (GLSKAYVGQK; UniProt P21333 2566-2575, looked up, fragment)
effect on NLX-mediated prevention of cellular indices of morphine tolerance (Go-to-Gs switch and cAMP) [10]: not

VAAGL (SEQ ID NO:12) [control peptide, FLNA2561-2565 withone mid-point alanine substitution]
Go coupling at 15 minutes ([8]; 10 μM peptide, 100 μM morphine, 15 minutes): mildly preserved | effect on acute morphine-induced coupling switch by MOR ([8]; 100 μM morphine): did not prevent | effect on acute morphine-induced pS133CREB signal [5, 12]: did not significantly diminish

VAKGL (SEQ ID NO:14) [decoy pentapeptide]
effect on acute morphine-induced coupling switch by MOR ([8]; 100 μM morphine): completely prevented | effect on acute morphine-induced pS133CREB signal [5, 12]: virtually abolished
